Experimental data taken from patent US20120231482A1, “METHOD, KIT OR DIAGNOSTIC FOR THE DETECTION OF REAGENTS WHICH INDUCE ALTERED CONTRACTILITY” (THE JOHNS HOPKINS UNIVERSITY, priority 2009, published 2012).

Assays:
Experiment in all cases: Modified biotin switch assay, sites of HNO modification
α actinin = type: biochemical, rat; conditions: for number of independent observations of peptide: Cys 889, tryptic peptide ELPPDQAQYCIKR, 25 μM NCA or 500 μM AS; for Position of modified Cys: α-Actinin, Table 2
Protocol: (§1) Rat myofibrillar preparations, as described in [7], were obtained from frozen ventricles (Pel Freez Biologicals) minced in 20 volumes/tissue weight of 4° C. relax buffer (SRB (75 mM KCL, 10 mM imidazole pH 7.2, 2 mM MgCl2) plus 4 mM phosphocreatine, 1 mM ATP, 50 mM BDM, 1 mM benzamidine-HCL, 0.1 mM PMSF, 1 μg/ml leupeptin, 1 μg/ml pepstatin, 1% (v/v) Trixon X-100) and adjusted to 10 mM EDTA. Minced preparations were centrifuged for 8 min at 3000xg and the supernant was decanted. Resulting pellets were resuspended in 10 volumes of SRB plus 1% Triton X-100 and subjected to 6 strokes in a Duall tissue homogenizer and centrifuged as above. Pellets were gently resuspended and centrifuged as above twice more in SRB including 1% (v/v) Triton X-100, twice in SRB lacking Triton X-100 and once in K-60 buffer (60 mM KCL, 20 mM MOPS, 2 mM MgCl2 pH 7) before being resuspended in 5 volumes of K-60.
(§2) Detection of HNO modifications by Modified Biotin Switch. HNO modified thiols were detected using a modification to the standard biotin switch protocol. In brief, 100 μg of rat myofibrils/treatment were diluted to 0.5 μg/μl in HEN (250 mM HEPES pH 7.7, 1 mM EDTA and 0.1 mM neocuproine) including 0.1% (w/v) SDS and exposed to a treatment for 10 min at 37° C. which was subsequently removed by acetone precipitation. Remaining free thiols were blocked by addition of 300 μl of HEN including 2.5% (w/v) SDS and 20 mM N-ethylmaleimide (NEM), incubated for 20 min at 50° C. Excess NEM was removed by acetone precipitation. HNO and/or NO modified thiols were reduced using 5 mM DTT or 1 mM ascorbate in 150 μl of HEN including 1% (w/v) SDS and biotinylated with 0.8 mM Biotin-HPDP (Pierce) for one hour at room temperature. Excess biotin-HPDP was removed by acetone precipitation (2 volumes) and resultant pellets were carefully washed with an additional volume of acetone. Biotinylated proteins were resuspended in 1 ml of HEN including 0.1% (w/v) SDS and captured by incubation with 15 μl of washed, packed Ultralink Immobilized Streptavidin (Pierce) for one hour at room temperature. Beads were washed four times in 50 bead volumes of HEN (twice including 0.1% (w/v) SDS, twice including 600 mM NaCl) and twice with EB (20 mM HEPES pH 7.7, 100 mM NaCl, 1 mM EDTA). Captured proteins were eluted with 40 μl of EB containing 100 mM DTT, mixed with 15 μl of 4×LDS sample buffer, boiled, separated by SDS PAGE and silver stained. For MS studies, biotinylated proteins were digested overnight with trypsin (Promega) prior to capture and washed ten additional times with 5 mM ammonium bicarbonate/20% acetonitrile before being eluted in 100 μl of wash buffer including 100 mM DTT as described. Captured peptides were identified using a LTQ linear ion trap tandem mass spectrometer (ThermoFinnigan, Waltham Mass. USA) with data searched against the rat IPI primary sequence database using the sorcerer searching platform (sagen).
(§3) To investigate the modifications that underlie the difference seen in the functional effect of these two compounds we performed an analysis on the myofilament proteins, using a modified biotin-switch method, followed by mass spectrometry for identification (FIG. 3). Following treatment with HNO or control compounds, unmodified cysteines are blocked with NEM before treatment with a reducing agent and labeling the exposed cysteines with a biotin group (FIG. 3A). In this case, 5 mM DTT was used as the reducing agent because it was shown in the physiological studies to reverse the effect of the treatment. […] Tryptic or chymotryptic peptides containing the modified cysteine residues were captured and identified by LC/MS/MS. […] To parse the role of candidate sites of modification between these two effects a comparative proteomics experiment was designed where modifications specific to NCA treatment would be considered candidates for the Ca^2+ effect while sites identified in common between AS and NCA could be candidates for the force effect (FIG. 3C). […]

myosin heavy chain α/β = type: biochemical, rat; conditions: for number of independent observations of peptide: 25 μM NCA or 500 μM AS; for Position of modified Cys: myosin heavy chain (α/β), Table 2
Protocol: as §1, §2, §3

myosin heavy chain α = biological target: T1, myosin heavy chain α (Rattus norvegicus, UniProt P02563); type: biochemical; conditions: for number of independent observations of peptide: Cys 37, 25 μM NCA or 500 μM AS; for Position of modified Cys: myosin heavy chain (α), Table 2
T1 construct: Rat myofibrillar preparations, as described in [7], were obtained from frozen ventricles (Pel Freez Biologicals); tissue Pel Freez Biologicals; host or cells: myofibrils from frozen rat ventricles
Protocol: as §1, §2, §3

myosin light chain 1 = biological target: T2, myosin light chain 1 (Rattus norvegicus, UniProt P16409); type: biochemical; conditions: for number of independent observations of peptide: Cys 81, tryptic peptide ITYGQCGDVLR, 25 μM NCA or 500 μM AS; for Position of modified Cys: myosin light chain 1, Table 2
T2 construct: Rat myofibrillar preparations, as described in [7], were obtained from frozen ventricles (Pel Freez Biologicals); tissue Pel Freez Biologicals; host or cells: myofibrils from frozen rat ventricles
Protocol: as §1, §2, §3

troponin C (cardiac) = biological target: T3, troponin C (cardiac) (Rattus norvegicus, UniProt Q4PP99); type: biochemical; conditions: for number of independent observations of peptide: Cys 35, tryptic peptide AAFDIFVLGAEDGCISTK, 25 μM NCA or 500 μM AS; for Position of modified Cys: troponin C, Table 2
T3 construct: Rat myofibrillar preparations, as described in [7], were obtained from frozen ventricles (Pel Freez Biologicals); tissue Pel Freez Biologicals; host or cells: myofibrils from frozen rat ventricles
Protocol: as §1, §2, §3

myson binding protein C = biological target: T4, myson binding protein C (Rattus norvegicus, UniProt P56741); type: biochemical; conditions: for number of independent observations of peptide: Cys 475, 25 μM NCA or 500 μM AS; for Position of modified Cys: myosin binding protein C, Table 2
T4 construct: Rat myofibrillar preparations, as described in [7], were obtained from frozen ventricles (Pel Freez Biologicals); tissue Pel Freez Biologicals; host or cells: myofibrils from frozen rat ventricles
Protocol: as §1, §2, §3

α actin = biological target: T5, α actin (Rattus norvegicus, UniProt P68035); type: biochemical; conditions: 25 μM NCA or 500 μM AS
T5 construct: Rat myofibrillar preparations, as described in [7], were obtained from frozen ventricles (Pel Freez Biologicals); tissue Pel Freez Biologicals; host or cells: myofibrils from frozen rat ventricles
Protocol: as §1, §2, §3

[1] = Cys 12, tryptic peptide DDEETTALVCDNGSLVK
[2] = Cys 219, tryptic peptide LCYVALDFENEMATAASSSLEK

T4 sequence (P56741 whole entry): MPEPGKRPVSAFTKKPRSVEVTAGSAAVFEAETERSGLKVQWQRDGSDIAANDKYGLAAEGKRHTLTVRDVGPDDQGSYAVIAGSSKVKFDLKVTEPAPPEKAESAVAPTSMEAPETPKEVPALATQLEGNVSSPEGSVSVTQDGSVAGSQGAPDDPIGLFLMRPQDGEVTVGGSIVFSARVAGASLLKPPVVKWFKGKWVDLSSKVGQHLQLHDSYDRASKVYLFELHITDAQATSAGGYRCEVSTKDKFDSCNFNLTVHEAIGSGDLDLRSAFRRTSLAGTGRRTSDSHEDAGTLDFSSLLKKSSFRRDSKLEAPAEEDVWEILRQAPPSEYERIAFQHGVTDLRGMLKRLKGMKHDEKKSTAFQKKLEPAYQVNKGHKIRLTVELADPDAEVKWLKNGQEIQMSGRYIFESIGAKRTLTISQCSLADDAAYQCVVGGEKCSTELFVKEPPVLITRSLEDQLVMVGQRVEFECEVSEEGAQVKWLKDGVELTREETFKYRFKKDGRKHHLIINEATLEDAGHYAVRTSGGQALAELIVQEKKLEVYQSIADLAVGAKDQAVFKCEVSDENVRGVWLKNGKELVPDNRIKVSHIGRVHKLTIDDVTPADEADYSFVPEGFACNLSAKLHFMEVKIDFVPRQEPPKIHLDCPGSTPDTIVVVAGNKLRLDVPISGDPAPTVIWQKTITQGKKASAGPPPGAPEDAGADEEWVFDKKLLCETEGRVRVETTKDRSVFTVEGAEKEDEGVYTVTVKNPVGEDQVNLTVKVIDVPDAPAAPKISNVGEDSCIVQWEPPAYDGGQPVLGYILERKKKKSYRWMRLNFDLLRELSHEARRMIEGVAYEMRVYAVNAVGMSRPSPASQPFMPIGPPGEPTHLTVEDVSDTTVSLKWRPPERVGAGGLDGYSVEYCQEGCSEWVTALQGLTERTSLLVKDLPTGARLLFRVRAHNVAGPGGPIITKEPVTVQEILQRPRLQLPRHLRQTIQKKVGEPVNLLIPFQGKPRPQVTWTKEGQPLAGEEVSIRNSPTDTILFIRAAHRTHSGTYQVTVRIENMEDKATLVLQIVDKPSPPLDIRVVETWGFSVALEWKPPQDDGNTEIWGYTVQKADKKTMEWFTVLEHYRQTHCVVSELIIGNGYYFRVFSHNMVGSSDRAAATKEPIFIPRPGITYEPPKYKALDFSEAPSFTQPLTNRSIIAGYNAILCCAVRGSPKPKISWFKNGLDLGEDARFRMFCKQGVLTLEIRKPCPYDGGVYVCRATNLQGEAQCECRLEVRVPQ
T1 sequence (P02563 whole entry): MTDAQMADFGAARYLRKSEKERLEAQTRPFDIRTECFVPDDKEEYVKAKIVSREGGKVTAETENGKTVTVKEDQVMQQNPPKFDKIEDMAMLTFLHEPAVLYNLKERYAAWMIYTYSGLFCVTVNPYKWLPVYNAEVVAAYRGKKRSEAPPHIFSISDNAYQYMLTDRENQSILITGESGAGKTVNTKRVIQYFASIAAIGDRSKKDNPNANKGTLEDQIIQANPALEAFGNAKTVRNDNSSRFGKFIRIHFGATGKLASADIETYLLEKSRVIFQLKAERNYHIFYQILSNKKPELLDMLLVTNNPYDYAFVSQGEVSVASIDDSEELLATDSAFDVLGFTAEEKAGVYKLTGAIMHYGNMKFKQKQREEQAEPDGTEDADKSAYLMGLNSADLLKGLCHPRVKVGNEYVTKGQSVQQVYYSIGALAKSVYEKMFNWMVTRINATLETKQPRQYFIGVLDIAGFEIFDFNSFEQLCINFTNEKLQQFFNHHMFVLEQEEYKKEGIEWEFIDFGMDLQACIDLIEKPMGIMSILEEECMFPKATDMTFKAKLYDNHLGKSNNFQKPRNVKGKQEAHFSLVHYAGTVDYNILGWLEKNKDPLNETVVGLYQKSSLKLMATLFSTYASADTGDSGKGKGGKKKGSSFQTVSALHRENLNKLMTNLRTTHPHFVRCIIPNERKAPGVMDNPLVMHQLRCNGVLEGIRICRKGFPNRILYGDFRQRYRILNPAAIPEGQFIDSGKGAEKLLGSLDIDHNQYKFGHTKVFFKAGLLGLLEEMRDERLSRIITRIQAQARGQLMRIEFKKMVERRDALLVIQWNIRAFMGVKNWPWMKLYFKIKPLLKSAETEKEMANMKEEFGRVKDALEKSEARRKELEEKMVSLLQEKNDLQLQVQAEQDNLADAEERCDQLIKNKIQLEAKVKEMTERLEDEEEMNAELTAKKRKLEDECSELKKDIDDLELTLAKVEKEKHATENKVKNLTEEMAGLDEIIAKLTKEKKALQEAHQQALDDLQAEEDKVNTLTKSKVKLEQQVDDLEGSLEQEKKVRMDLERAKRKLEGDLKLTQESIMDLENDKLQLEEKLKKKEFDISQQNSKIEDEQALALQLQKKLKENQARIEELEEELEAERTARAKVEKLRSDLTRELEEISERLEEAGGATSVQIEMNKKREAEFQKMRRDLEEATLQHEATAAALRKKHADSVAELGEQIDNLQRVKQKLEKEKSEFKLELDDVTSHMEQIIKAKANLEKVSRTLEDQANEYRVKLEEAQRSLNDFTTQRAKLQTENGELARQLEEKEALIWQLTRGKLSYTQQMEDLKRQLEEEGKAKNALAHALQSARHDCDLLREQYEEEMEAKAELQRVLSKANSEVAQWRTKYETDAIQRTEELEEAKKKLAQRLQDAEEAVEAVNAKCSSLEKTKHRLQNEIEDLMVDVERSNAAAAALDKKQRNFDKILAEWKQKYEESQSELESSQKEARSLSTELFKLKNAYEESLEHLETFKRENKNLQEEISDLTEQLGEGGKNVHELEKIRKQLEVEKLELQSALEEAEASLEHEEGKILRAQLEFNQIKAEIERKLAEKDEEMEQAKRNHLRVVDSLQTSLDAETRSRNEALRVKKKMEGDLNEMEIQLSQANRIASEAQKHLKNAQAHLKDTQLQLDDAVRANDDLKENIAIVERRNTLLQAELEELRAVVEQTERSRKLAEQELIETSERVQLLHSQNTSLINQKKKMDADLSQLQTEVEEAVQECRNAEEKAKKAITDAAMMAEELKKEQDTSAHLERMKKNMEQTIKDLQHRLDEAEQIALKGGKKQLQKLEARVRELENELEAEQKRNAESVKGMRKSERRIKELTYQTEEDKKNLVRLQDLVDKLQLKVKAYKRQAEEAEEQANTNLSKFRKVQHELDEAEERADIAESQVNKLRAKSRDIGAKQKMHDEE
T2 sequence (P16409 whole entry): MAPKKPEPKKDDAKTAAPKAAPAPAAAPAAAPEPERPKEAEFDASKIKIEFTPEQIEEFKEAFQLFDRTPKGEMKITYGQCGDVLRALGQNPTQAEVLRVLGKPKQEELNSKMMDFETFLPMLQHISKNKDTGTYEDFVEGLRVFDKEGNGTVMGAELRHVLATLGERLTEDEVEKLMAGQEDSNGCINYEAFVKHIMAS

Row | Structure (SMILES) | number of independent observations of peptide (α actinin) | Position of modified Cys (α actinin) | number of independent observations of peptide (myosin heavy chain α/β; Cys 907, chymotryptic peptide ADAEERCDQL) | Position of modified Cys (myosin heavy chain α/β) | number of independent observations of peptide (myosin heavy chain α; chymotryptic peptide DIRTECFVPDDKEEY) | number of independent observations of peptide (myosin heavy chain α; tryptic peptide TECFVPDDKEEYVK) | Position of modified Cys (myosin heavy chain α) | number of independent observations of peptide (myosin light chain 1) | Position of modified Cys (myosin light chain 1) | number of independent observations of peptide (troponin C (cardiac)) | Position of modified Cys (troponin C (cardiac)) | number of independent observations of peptide (myson binding protein C; chymotryptic peptide ECEVSEEGAQVKW) | Position of modified Cys (myson binding protein C) | number of independent observations of peptide (α actin; Cys 12, chymotryptic peptide VCDNGSLVKAGF) | number of independent observations of peptide (α actin; [1]) | number of independent observations of peptide (α actin; [2]) | number of independent observations of peptide (myosin heavy chain α/β; Cys 1750, tryptic peptide MDADLSQLQTEVEEAVQECR) | number of independent observations of peptide (myson binding protein C; tryptic peptide VEFECEVSEEGAQVK) | number of independent observations of peptide (α actin; Cys 257, chymotryptic peptide RCPETLFQPSF)
1 | [Na+].[Na+].[O-][N+]([O-])=NO [AS, Angeli's Salt] | 3 | 889 | 2 | 907(α/β) | 3 | 3 | 37(α) | 2 | 81 | 2 | 35 | 2 | 475 | 2 | 3 | 1 | – | – | –
2 | CC(=O)OC1(N=O)CCCCC1 [NCA, 1-nitrosocyclohexylacetate] | 2 | 889 | – | 1750(α/β) | – | 3 | 37(α) | 2 | 81 | 2 | 35 | – | 475 | – | 3 | 1 | 2 | 1 | 1
